The values below come from patent publication US20220281821A1, “INDAZOLE COMPOUNDS AND THEIR PHARMACEUTICAL COMPOSITIONS” (Jinan University, priority 2019, published 2022).

Some results are limits rather than exact numbers.

Holding throughout (type): cell-based, mouse
One experiment addresses T1, BaF3-CD74-NTRK1 (Homo sapiens, UniProt P04629).
T1 construct: fused on or other part: P04233 (HLA class II histocompatibility antigen gamma chain)
Description: Cell proliferation inhibition (CCK-8), BaF3-CD74-NTRK1 stable strain. The conditions noted are these: BaF3-CD74-NTRK1, 72 hours. On the procedure: (§1) The brief steps of stable strain construction are as follows: construct a pCDNA3.1(+) plasmid vector carrying genes such as CD74-NTRK1, ETV6-NTRK2 and ETV6-NTRK3; the plasmid was electroporated into Ba/F3 cells using the Amaxa® Cell Line Nucleofector® Kit V; 48 hours after electroporated, G418 with a final concentration of 1000 μg/ml was added for screening for two weeks, and then IL3 was removed, and continued screening to obtain polyclonal stable strains; then single clones were selected by a limiting dilution method. The stable strains were then identified using positive drugs, WB and gene sequencing; and the monoclonal clones that were identified as completely correct may be used for the study of cell proliferation inhibitory activity of inhibitors.
(§2) Cell proliferation inhibition activity study: the cells in the logarithmic growth phase were seeded into 96-well plates at 8000-12000 cells/well, and inhibitors at different concentrations (0-10 μM) were added the next day, and incubation was continued for 72 hours; then 10 μL of CCK-8 reagent was added to each well, and the incubation was continued for 1-3 hours; and then use a super microplate reader to measure their absorbance values at 450 nm and 650 nm. The half-inhibition concentration (IC50) was calculated using GraphPad Prism 8.0.0.

For another experiment, the target named is T2, BaF3-ETV6-NTRK2 (Homo sapiens, UniProt Q16620).
T2 construct: fused on or other part: P41212 (Transcription factor ETV6)
Description: Cell proliferation inhibition (CCK-8), BaF3-ETV6-NTRK2 stable strain. The conditions noted are these: BaF3-ETV6-NTRK2, 72 hours. On the procedure: as §1, §2

Another experiment deals with T3, BaF3-ETV6-NTRK3 (Homo sapiens, UniProt Q16288).
T3 construct: fused on or other part: P41212 (Transcription factor ETV6)
Description: Cell proliferation inhibition (CCK-8), BaF3-ETV6-NTRK3 stable strain. As to conditions: BaF3-ETV6-NTRK3, 72 hours. On the procedure: as §1, §2

T2 sequence (Q16620 538-822 limits assumed): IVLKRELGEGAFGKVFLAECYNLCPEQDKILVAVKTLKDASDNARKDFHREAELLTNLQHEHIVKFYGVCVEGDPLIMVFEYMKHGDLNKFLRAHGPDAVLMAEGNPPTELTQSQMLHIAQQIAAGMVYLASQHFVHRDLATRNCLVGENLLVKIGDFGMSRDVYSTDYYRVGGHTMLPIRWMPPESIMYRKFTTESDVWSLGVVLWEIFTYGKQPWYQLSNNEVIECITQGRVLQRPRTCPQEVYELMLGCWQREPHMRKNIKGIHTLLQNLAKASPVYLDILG
T3 sequence (Q16288 whole entry, the tested form may be a part): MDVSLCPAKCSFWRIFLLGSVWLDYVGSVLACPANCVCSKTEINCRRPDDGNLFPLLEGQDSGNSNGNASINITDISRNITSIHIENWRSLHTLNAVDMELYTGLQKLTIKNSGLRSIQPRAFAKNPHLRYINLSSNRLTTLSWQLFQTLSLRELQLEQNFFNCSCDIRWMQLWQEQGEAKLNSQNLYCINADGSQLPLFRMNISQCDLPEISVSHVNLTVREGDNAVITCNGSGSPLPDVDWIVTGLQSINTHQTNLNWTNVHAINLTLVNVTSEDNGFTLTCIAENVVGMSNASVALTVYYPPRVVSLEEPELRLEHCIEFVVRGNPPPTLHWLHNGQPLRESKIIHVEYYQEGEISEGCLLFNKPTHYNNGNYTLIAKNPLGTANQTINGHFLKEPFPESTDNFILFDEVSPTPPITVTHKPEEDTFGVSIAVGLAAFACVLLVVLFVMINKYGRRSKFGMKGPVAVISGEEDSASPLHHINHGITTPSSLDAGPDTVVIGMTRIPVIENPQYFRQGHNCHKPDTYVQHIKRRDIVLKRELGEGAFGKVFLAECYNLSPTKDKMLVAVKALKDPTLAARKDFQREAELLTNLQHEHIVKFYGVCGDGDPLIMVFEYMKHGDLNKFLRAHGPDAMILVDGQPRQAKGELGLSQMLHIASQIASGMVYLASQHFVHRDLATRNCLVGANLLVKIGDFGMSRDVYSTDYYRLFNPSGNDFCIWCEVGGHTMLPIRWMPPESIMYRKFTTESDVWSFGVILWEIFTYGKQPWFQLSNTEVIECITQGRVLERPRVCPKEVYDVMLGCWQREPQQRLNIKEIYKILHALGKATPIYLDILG
T1 sequence (P04629 510-796 limits assumed): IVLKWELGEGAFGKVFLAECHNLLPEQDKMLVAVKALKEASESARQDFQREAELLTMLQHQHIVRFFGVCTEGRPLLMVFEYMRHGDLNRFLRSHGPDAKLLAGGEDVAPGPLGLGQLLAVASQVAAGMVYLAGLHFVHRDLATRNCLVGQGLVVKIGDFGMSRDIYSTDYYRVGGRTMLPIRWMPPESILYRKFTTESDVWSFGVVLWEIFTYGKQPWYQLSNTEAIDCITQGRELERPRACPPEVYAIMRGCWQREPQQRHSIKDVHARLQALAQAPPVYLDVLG

Consider `C(=C\c1n[nH]c2ccc(NCc3ccccc3)cc12)/c1ccccn1` [DYX-314, (E)-N-benzyl-3-(2-(pyridin-2-yl)vinyl)-1H-indazol-5-amine], for which the IC50 on BaF3-CD74-NTRK1 turned out to be 154 nM; on BaF3-ETV6-NTRK2, 165 nM; against BaF3-ETV6-NTRK3, 149 nM.
Taken in the same sequence, the figures for `O=C(/C=C/c1n[nH]c2ccc(NCc3cc(F)cc(F)c3)cc12)N1CC[C@H](O)C1` [DYX-228, (S,E)-3-(5-((3,5-difluorobenzyl)amino)-1H-indazol-3-yl)-1-(3-hydroxylpyrrolidin-1-yl)prop-2-en-1-one] were 11.9 nM, 20.5 nM and 11.6 nM.
Take `CC(=O)n1cc(/C=C/c2n[nH]c3ccc(NS(=O)(=O)c4cc(F)cc(F)c4)cc23)cn1` [CHW-2, (E)-N-(3-(2-(1-acetyl-1H-pyrazol-4-yl)vinyl)-1H-indazol-5-yl)-3,5-difluorobenzenesulfonamide]: the values for the IC50 against BaF3-CD74-NTRK1, at BaF3-ETV6-NTRK2 and at BaF3-ETV6-NTRK3 were 107 nM, 185 nM and 127 nM, respectively.
Taken in the same sequence, the figures for `C[C@@H](Nc1ccc2[nH]nc(/C=C/c3ccccn3)c2n1)c1cc(F)cc(F)c1` [DYX-332, (R,E)-N-(1-(3,5-difluorophenyl)ethyl)-3-(2-(pyridin-2-yl)vinyl)-1H-pyrazolo[4,3-b]pyridin-5-amine] were 9.9 nM, 146 nM and 46.5 nM.
With `COc1cc(F)cc(CNc2ccc3[nH]nc(/C=C/c4ccccn4)c3c2)c1` [DYX-403, (E)-N-(3-fluoro-5-methoxybenzyl)-3-(2-(pyridin-2-yl)vinyl)-1H-indazol-5-amine], the IC50 against BaF3-CD74-NTRK1 amounted to 52.6 nM; on BaF3-ETV6-NTRK2 it was 137 nM; at BaF3-ETV6-NTRK3, 180 nM.
As to `C[C@@H](Nc1ccc2[nH]nc(/C=C/c3cnn(CCO)c3)c2c1)c1cccc(F)c1` [DYX-335, (R,E)-2-(4-(2-(5-((1-(3-fluorophenyl)ethyl)amino)-1H-indazol-3-yl)vinyl)-1H-pyrazol-1-yl)-1-ethanol], the IC50 on BaF3-CD74-NTRK1 is 0.6 nM; against BaF3-ETV6-NTRK2, 10.7 nM; against BaF3-ETV6-NTRK3 it was 3.3 nM.
Take `O=S(=O)(Nc1ccc2[nH]nc(/C=C/c3cnn(CC(F)(F)F)c3)c2c1)c1cc(F)cc(F)c1` [CHW-3]: the values for the IC50 against BaF3-CD74-NTRK1, on BaF3-ETV6-NTRK2 and against BaF3-ETV6-NTRK3 were 92 nM, 165 nM and 123 nM, respectively.
Taken in the same sequence, the figures for `CCNC(=O)/C=C/c1n[nH]c2ccc(NCc3cc(F)cc(F)c3)cc12` [DYX-236, (E)-3-(5-((3,5-difluorobenzyl)amino)-1H-indazol-3-yl)-N-ethylacrylamide] were 112 nM, 116 nM and 196 nM.
For `Fc1ccc(Cl)c(CNc2ccc3[nH]nc(/C=C/c4ccccn4)c3c2)c1` [DYX-416, (E)-N-(2-chloro-5-fluorobenzyl)-3-(2-(pyridin-2-yl)vinyl)-1H-indazol-5-amine] the same measures were 21 nM, 88.7 nM and 34.3 nM.
Taken in the same sequence, the figures for `Cc1ccccc1/C=C/c1n[nH]c2ccc(S(=O)(=O)c3cc(F)cc(F)c3)cc12` [Example E01F08, (E)-5-((3,5-difluorophenyl)sulfonyl)-3-(2-methylstyryl)-1H-indazole] were 43.8 nM, 220 nM and 82.9 nM.
`O=S(=O)(Nc1ccc2[nH]nc(/C=C/c3cn[nH]c3)c2c1)c1cc(F)cc(F)c1` [Example D5220, (E)-3,5-difluoro-N-(3-(2-(1H-pyrazol-4-yl)vinyl)-1H-indazol-5-yl)benzenesulfonamide]: the figures for the IC50 against BaF3-CD74-NTRK1, against BaF3-ETV6-NTRK2 and against BaF3-ETV6-NTRK3 were 120 nM, 215 nM and 175 nM, respectively.
Regarding `C[C@@H](Nc1ccc2[nH]nc(/C=C/c3ccccc3)c2c1)c1cc(F)cc(F)c1` [DYX-412, (R,E)-N-(1-(3,5-difluorophenyl)ethyl)-3-styryl-1H-indazol-5-amine], the IC50 worked out at 110 nM at BaF3-CD74-NTRK1, 115 nM at BaF3-ETV6-NTRK2 and 35.6 nM on BaF3-ETV6-NTRK3.
Taken in the same sequence, the figures for `CN(C)C(=O)Cn1cc(/C=C/c2n[nH]c3ccc(NS(=O)(=O)c4cc(F)cc(F)c4)cc23)cn1` [CHW-10, (E)-2-(4-(2-(5-((3,5-difluorophenyl)sulfonamido)-1H-indazol-3-yl)vinyl)-1H-pyrazol-1-yl)-N,N-dimethylacetamide] were 274 nM, 439 nM and 390 nM.
Regarding `COc1ccc(F)cc1CNc1ccc2[nH]nc(/C=C/c3ccccn3)c2c1` [DYX-418, (E)-N-(5-fluoro-2-methoxybenzyl)-3-(2-(pyridin-2-yl)vinyl)-1H-indazol-5-amine], the IC50 on BaF3-CD74-NTRK1 is 7.6 nM; against BaF3-ETV6-NTRK2, 41 nM; at BaF3-ETV6-NTRK3 it was 16.2 nM.
For `FC(F)(F)c1cccc(Cc2ccc3[nH]nc(C#Cc4ccccn4)c3c2)c1` [DYX-138Q] the same measures were over 10000 nM, over 10000 nM and over 10000 nM.
As to `O=S(=O)(Nc1ccc2[nH]nc(/C=C/c3cccnc3)c2c1)c1cc(F)cc(F)c1` [CHW-8, (E)-3,5-difluoro-N-(3-(2-(pyridin-3-yl)vinyl)-1H-indazol-5-yl)benzenesulfonamide], the half-inhibitory concentration (IC50) came to 143 nM against BaF3-CD74-NTRK1, 248 nM at BaF3-ETV6-NTRK2 and 174 nM against BaF3-ETV6-NTRK3.
In the case of `CNC(=O)/C=C/c1n[nH]c2ccc(NCc3cc(F)cc(F)c3)cc12` [DYX-235, (E)-3-(5-((3,5-difluorobenzyl)amino)-1H-indazol-3-yl)-N-methylacrylamide], the IC50 against BaF3-CD74-NTRK1 amounted to 20 nM; on BaF3-ETV6-NTRK2, 32.6 nM; at BaF3-ETV6-NTRK3, 34.2 nM.
With `O=S(=O)(Nc1ccc2[nH]nc(/C=C/c3cnn(CCO)c3)c2c1)c1cc(F)cc(F)c1` [Example D5221, (E)-3,5-difluoro-N-(3-{2-[1-(2-hydroxyl-ethyl)-1H-pyrazol-4-yl]-vinyl}-1H-indazol-5-yl)-benzenesulfonamide], the IC50 against BaF3-CD74-NTRK1 came out at 144 nM; on BaF3-ETV6-NTRK2 it was 196 nM; on BaF3-ETV6-NTRK3, 128 nM.
In the case of `O=C(/C=C/c1n[nH]c2ccc(NCc3cc(F)cc(F)c3)cc12)N1CC[C@@H](O)C1` [DYX-227, (R,E)-3-(5-((3,5-difluorobenzyl)amino)-1H-indazol-3-yl)-1-(3-hydroxylpyrrolidin-1-yl)prop-2-en-1-one], the IC50 was found to be 37.5 nM at BaF3-CD74-NTRK1, 56 nM at BaF3-ETV6-NTRK2 and 33.2 nM against BaF3-ETV6-NTRK3.
For `Fc1cc(Br)cc(CNc2ccc3[nH]nc(/C=C/c4ccccn4)c3c2)c1` [DYX-415, (E)-N-(3-bromo-5-fluorobenzyl)-3-(2-(pyridin-2-yl)vinyl)-1H-indazol-5-amine] the same measures were 50.8 nM, 510 nM and 156 nM.
For `Cn1cc(/C=C/c2n[nH]c3ccc(NS(=O)(=O)c4cc(F)cc(F)c4)cc23)cn1` [Example D5217, (E)-3,5-difluoro-N-(3-(2-(1-methyl-1H-pyrazol-4-yl)vinyl)-1H-indazol-5-yl)benzenesulfonamide] the same measures were 90.9 nM, 171 nM and 125 nM.
For the molecule `N#CCn1cc(/C=C/c2n[nH]c3ccc(NS(=O)(=O)c4cc(F)cc(F)c4)cc23)cn1` [CHW-1, (E)-N-(3-(2-(1-(cyanomethyl)-1H-pyrazol-4-yl)vinyl)-1H-indazol-5-yl)-3,5-difluorobenzene sulfonamide], the IC50 was found to be 35.5 nM on BaF3-CD74-NTRK1, 43.1 nM against BaF3-ETV6-NTRK2 and 39.2 nM against BaF3-ETV6-NTRK3.
For the molecule `Fc1ccc(CNc2ccc3[nH]nc(/C=C/c4ccccn4)c3c2)cc1` [DYX-417, (E)-N-(4-fluorobenzyl)-3-(2-(pyridin-2-yl)vinyl)-1H-indazol-5-amine], the results for the IC50 against BaF3-CD74-NTRK1, on BaF3-ETV6-NTRK2 and at BaF3-ETV6-NTRK3 were 158 nM, 2530 nM and 579 nM, respectively.
For the molecule `Cc1cc(C)cc(Cc2ccc3[nH]nc(/C=C/c4ccccn4)c3c2)c1` [Example D07F01, (E)-5-(3,5-dimethylbenzyl)-3-(2-(pyridin-2-yl)vinyl)-1H-indazole], the results for the concentration for half-maximal inhibition (IC50) against BaF3-CD74-NTRK1, against BaF3-ETV6-NTRK2 and at BaF3-ETV6-NTRK3 were 2310 nM, 3020 nM and 2040 nM, respectively.
Taken in the same sequence, the figures for `C[C@@H](Nc1ccc2[nH]nc(/C=C/c3ccccn3)c2c1)c1cccc(F)c1` [DYX-320, (R,E)-N-(1-(3-fluorophenyl)ethyl)-3-(2-(pyridin-2-yl)vinyl)-1H-indazol-5-amine] were 37.6 nM, 32.4 nM and 10.4 nM.
For `N#Cc1cccc(Cc2ccc3[nH]nc(C#Cc4ccccn4)c3c2)c1` [DYX-136Q, 3-((3-(pyridin-2-ylethynyl)-1H-indazol-5-yl)methyl)benzonitrile] the same measures were 4600 nM, 3100 nM and 2090 nM.
In the case of `O=S(=O)(Nc1ccc2[nH]nc(/C=C/c3cnn(C(F)F)c3)c2c1)c1cc(F)cc(F)c1` [CHW-11], the IC50 is 53.8 nM at BaF3-CD74-NTRK1, 103 nM at BaF3-ETV6-NTRK2 and 111 nM against BaF3-ETV6-NTRK3.
In the case of `O=S(=O)(Nc1ccc2[nH]nc(/C=C/c3cnn(C4CC4)c3)c2c1)c1cc(F)cc(F)c1` [CHW-4], the IC50 stood at 3.1 nM against BaF3-CD74-NTRK1, 8.2 nM against BaF3-ETV6-NTRK2 and 7 nM at BaF3-ETV6-NTRK3.
